SMILES strings stand for the structures. Read-outs that look alike come from different tables or passages of the source. Where only a bound is given, the exact number is not on record here.

For experiment [1], the target named is T1, human chemokine receptor CCR1 (Homo sapiens, UniProt P32246).
T1 construct: expressed in transfected cells; host or cells: HEK293T, transient
T1 sequence (P32246 1-355): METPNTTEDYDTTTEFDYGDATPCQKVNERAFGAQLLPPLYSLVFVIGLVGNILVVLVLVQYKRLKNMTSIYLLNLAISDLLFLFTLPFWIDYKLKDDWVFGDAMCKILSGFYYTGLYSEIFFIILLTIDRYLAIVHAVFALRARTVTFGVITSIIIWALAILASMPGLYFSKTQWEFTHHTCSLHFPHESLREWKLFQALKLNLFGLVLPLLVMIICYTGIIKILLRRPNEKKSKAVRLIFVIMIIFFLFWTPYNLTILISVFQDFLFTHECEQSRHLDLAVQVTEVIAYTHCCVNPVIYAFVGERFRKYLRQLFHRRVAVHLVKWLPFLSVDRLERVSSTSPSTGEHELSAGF
The experiment can be described thus: Cellular NanoBiT β-arrestin recruitment assay. It is filed as cell-based. On the procedure: (§1) CCR1 and CCR2 was monitored using a nanoluciferase complementation -based assay (NanoBiT, Promega). 17-19 5 x 10^6 HEK293T cells were plated in 10 cm dishes and cultured for 24 h before transfection with vectors encoding for the human chemokine receptor CCR1 or CCR2 C-terminally fused with SmBiT and β-arrestin 2 N-terminally fused with LgBiT. 24 h after transfection cells were harvested, distributed into white 96-well plates (5 × 10^4 cells per well) and incubated for 1 h at 37 °C with compound 23 at concentrations ranging from 10 nM to 10 µM. The endogenous chemokine ligand CCL5 (3 nM, for CCR1) or CCL2 (10 nM, for CCR2) was then added, and luminescence generated upon nanoluciferase complementation in the presence of coelenterazine H was measured with a Mithras LB940 luminometer (Berthold Technologies) for 20 min. […]
(§2) Finally, the top 5% of the identified hits were subsequently docked to a homology model of CCR1 (vide infra). After visual examination of the obtained binding modes 24 hit compounds were identified for further investigation .
(§3) Molecular docking: For the docking studies in the course of our virtual screening campaign, the CCR1 protein was […]
27, 28 CCR1 structure was optimized using the Quickprep and structure preparation wizard in MOE 24 using CHARMM27 forcefield. The protein was saved in mol2 format and loaded in GOLD.25, 26 The amino acids defining the IABS were listed in a text file to define the docking cavity. 50 GA runs were performed for docking CCR2-RA-[R] (4-[R]) and SN_12 (43), with the generated solutions clustered based on their RMSD with the threshold set to 0.75 Å using the complete linkage method. Docking runs were performed using ChemScore. Flexibility of amino acids Lys63ICL1, Arg1313.50, Leu2406.36 and Arg3078.49 was taken in consideration in the docking runs, with conformational sampling of their side chains being done by the rotamer libraries implemented in GOLD.25, 26 For the docking studies with our ligand-linker conjugates (Figure S1), molecular ligand structures were geometry optimized as neutral molecules by means of Avogadro (Version 1.2.0)29 using the Universal Force Field (UFF) and the Steepest Decent Algorithm until convergence (ΔE = 0).
CCR113 was used for docking. The compounds were docked by means of AutoDock Vina 1.1.2.30, 31 An exhaustiveness value of 8 and a search space of 22 x 22 x 22 Å³ was applied around the unliganded intracellular allosteric binding site of CCR1. Twenty docking poses were generated for each ligand and inspected manually and according to the docking score.
(Activated receptors often draw arrestin, which recruitment assays turn into a signal.)

Experiment [2] deals with T2, human chemokine receptor CCR2 (Homo sapiens, UniProt P41597).
T2 construct: expressed in transfected cells; host or cells: HEK293T, transient
T2 sequence (P41597 whole entry): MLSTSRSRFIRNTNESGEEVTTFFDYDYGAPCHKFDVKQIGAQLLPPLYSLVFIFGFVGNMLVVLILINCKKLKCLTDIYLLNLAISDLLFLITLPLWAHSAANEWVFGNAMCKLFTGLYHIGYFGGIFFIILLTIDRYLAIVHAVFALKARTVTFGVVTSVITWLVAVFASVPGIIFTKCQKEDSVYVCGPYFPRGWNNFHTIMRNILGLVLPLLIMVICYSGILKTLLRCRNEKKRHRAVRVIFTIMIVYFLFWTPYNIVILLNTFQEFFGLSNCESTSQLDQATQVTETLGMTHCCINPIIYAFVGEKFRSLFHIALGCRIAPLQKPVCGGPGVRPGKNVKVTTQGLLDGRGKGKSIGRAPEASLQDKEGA
The experiment can be described thus: Cellular NanoBiT β-arrestin recruitment assay. The experiment is classed as cell-based. The following applies: in the presence of CCL2 (10 nM), HEK293T cells. Here is the method: (PerkinElmer, Groningen, NL).
as §1, with “Cellular NanoBiT β-arrestin recruitment assays: Chemokine-induced β-arrestin-2 recruitment to chemokine receptors CCR1 and” for “CCR1 and”
as §2, §3
27, 28 CCR1 structure was optimized using the Quickprep and structure preparation wizard in MOE 24 using CHARMM27 forcefield. The protein was saved in mol2 format and loaded in GOLD.25, 26 The amino acids defining the IABS were listed in a text file to define the docking cavity. 50 GA runs were performed for docking CCR2-RA-[R] (4-[R]) and SN_12 (43), with the generated solutions clustered based on their RMSD with the threshold set to 0.75 Å using the complete linkage method. Docking runs were performed using ChemScore. […]

With `O=C(C1=C(O)C(=O)N(CCc2ccc(O)cc2)C1c1ccc(F)cc1)c1ccccc1` (racemic) [compound 23], the IC50 is 6 µM in experiment [1] (absence of agonist, read-out: IC50 (CCR1), basal β-arrestin recruitment); 6.17 µM in experiment [1] (absence of agonist, read-out: pIC50(CCR1), basal β-arrestin recruitment (converted)); 14.2 µM in experiment [1] (in the presence of CCL5 (3 nM), HEK293T cells, read-out: IC50 (CCR1), β-arrestin recruitment); 186 µM in experiment [2] (read-out: IC50 (CCR2), β-arrestin recruitment); 195 µM in experiment [2] (read-out: pIC50(CCR2), β-arrestin recruitment (converted)). In addition, the “CCR1 over CCR2 selectivity, β-arrestin recruitment” value in experiment [1] (cellular NanoBiT assays) is more than 10 fold.
